# pEC50: −log10 of the molar value. Like-named read-outs stand apart in the source and are kept apart here.
# Biological target: T1, human α4β2 subtype of nicotinic acetylcholine receptors (Homo sapiens, UniProt P17787+P43681)
# T1 construct: expressed in transfected cells; host or cells: Xenopus laevis oocytes injected with 50 ng each of α4 and β2 cRNA (pSP64 polyA vector)
# Assay: Agonist activities at human α4β2 subtype of nicotinic acetylcholine receptors expressed in Xenopus oocytes (membrane potential holding method)
# Format: cell-based
# Details: for Emax at 100 µM: read-out: Agonist activity: control % by response at 100 μM of the test compound
# Procedure: Agonist effect in human α4β2 subtype of nicotinic acetylcholine receptors are examined by using human nicotinic acetylcholine receptors prepared in oocytes of Xenopus laevis, which is injected with cRNA from the corresponding cloning cDNA of human α4 and β2 subunits of nicotinic acetylcholine receptors, and to measure the expression of electric response by adding the test compounds to perfusion solution by means of membrane potential holding method.
# Agonist Activities at Human α4β2 Subtype of Nicotinic Acetylcholine Receptors
# (1) Preparation of cRNA of Human α4β2 Subtype of Nicotinic Acetylcholine Receptors
# Obtained hnACh-R α4 cDNA and hnACh-R β2 cDNA were inserted to the cRNA expression vector (pSP64 polyA) having SP6 RNA promoter to construct hnACh-R α4/pSP64 polyA and hnACh-R β2/pSP64 polyA, respectively. After cutting from expression vector by restriction enzyme (EcoRI), transcription was performed by affecting SP6 RNA polymerase in the presence of cap analogues to obtain hnACh-R α4 cRNA and hnACh-R β2 cRNA, respectively.
# (2) Expression of Human α4β2 Subtype Nicotinic Acetylcholine Receptors in Xenopus oocytes
# Oocytes were purchased from Kitanihonseibutsukyohzai Co., Ltd., which were already enucleated from Xenopus laevis, and used in this experiment.
# The oocytes were treated with collagenase (Sigma type I; 1 mg/ml) in calcium-free modified Birth's solution (88 mM of NaCl, 1 mM of KCl, 2.4 mM of NaHCO3, 0.82 mM of MgSO4, 15 mM of HEPES, pH 7.6) under gently stirring at room temperature for 90 minutes, and washed out the enzyme from the tissue. Then, oocytes were separated from ovarian follicle by tweezers, and isolated oocytes were placed in antibiotics containing modified Birth's solution (88 mM of NaCl, 1 mM of KCl, 2.4 mM of NaHCO3, 0.82 mM of MgSO4, 15 mM of HEPES, pH 7.6, and 0.1 v/v% of mixture solution containing of penicillin and streptomycin for incubation; Sigma Co.). […] In oocytes, heterogeneous quintuple [(α4)2(β2)3] was composed by translation of injected cRNAs, and ion channel receptors were constructed on cell membrane.
# (3) Agonist Activities at Human α4β2 Subtype of Nicotinic Acetylcholine Receptors
# Recordings of response at human α4β2 subtype of nicotinic acetylcholine receptors by means of membrane potential holding method were performed as follow. […] Test compounds were added to the perfusion solution, and recorded the peak strength of induced inward current. In order to normalize the response of test compounds, the response with acetylcholine (Ach) were recorded before and after application of the test compounds. Generally in the oocytes just after isolated, the response of intrinsic muscarinic acetylcholine receptors, which is inward electric current caused by activation of calcium dependence chloride ion channels with increase of the intracellular calcium concentration by stimulation of receptors, is observed. […] Therefore, the responses observed in oocytes with injection of hnACh-R α4 cRNA and hnACh-R β2 cRNA, i.e., the inward current induced by the intracellular influx of sodium ion according to the stimulation of receptors, would be the freshly observed responses of human α4β2 subtype nicotinic acetylcholine receptors.
# [1] = 100 μM test compound, in comparison with the response at 10 μM acetylcholine (100%)
# [2] = Xenopus oocytes expressing human α4β2, held at −50 mV, peak inward current, read-out: Agonist activity (ED50)
# T1 sequence (P43681 29-627 limits assumed): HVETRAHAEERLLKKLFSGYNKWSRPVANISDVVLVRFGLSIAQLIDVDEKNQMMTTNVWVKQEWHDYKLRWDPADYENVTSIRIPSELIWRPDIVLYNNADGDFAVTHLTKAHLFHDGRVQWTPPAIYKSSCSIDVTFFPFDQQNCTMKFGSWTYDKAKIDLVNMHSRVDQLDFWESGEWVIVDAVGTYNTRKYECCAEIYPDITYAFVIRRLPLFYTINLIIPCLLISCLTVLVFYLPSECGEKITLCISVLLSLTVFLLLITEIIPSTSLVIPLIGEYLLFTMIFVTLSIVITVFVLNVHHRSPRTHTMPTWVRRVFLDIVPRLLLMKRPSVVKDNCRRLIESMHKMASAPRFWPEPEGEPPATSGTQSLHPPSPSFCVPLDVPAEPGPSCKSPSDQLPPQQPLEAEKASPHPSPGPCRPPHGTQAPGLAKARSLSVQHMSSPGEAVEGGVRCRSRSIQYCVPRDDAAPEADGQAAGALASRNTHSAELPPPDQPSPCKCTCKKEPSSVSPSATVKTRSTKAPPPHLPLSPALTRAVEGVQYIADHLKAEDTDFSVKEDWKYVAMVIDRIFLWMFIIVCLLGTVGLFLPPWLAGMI
# T1 sequence (P17787 26-502): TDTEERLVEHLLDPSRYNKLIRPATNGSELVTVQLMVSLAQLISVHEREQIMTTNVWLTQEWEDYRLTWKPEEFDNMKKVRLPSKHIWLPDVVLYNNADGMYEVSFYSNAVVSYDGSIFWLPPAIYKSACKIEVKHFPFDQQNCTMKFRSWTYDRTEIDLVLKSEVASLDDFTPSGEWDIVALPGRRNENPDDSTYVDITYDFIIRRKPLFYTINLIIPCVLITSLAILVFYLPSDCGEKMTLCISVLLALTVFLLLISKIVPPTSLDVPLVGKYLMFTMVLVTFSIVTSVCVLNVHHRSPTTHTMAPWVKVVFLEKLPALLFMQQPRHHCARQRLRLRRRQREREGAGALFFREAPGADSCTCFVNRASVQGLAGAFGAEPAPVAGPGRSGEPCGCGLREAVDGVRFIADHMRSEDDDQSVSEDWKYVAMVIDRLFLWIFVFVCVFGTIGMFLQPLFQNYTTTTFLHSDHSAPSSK
smiles,measurement,setting,value
"N=C1SCCN1Cc1ccc(Cl)nc1 [Compound 5, 3-(6-chloro-3-pyridyl)methyl-2-iminothiazolidine]",Emax at 100 µM,[1],4.9%
"N=c1ccccn1Cc1ccc(Cl)nc1 [Compound 7, 1-(6-chloro-3-pyridyl)methyl-2-imino-1,2-dihydropyridine]",Emax at 100 µM,[1],16%
"N=c1sccn1Cc1ccc(Cl)nc1 [Compound 8, 3-(6-chloro-3-pyridyl)methyl-2-imino-2,3-dihydrothiazole]",pEC50,[2],5.38
"Nc1nccn1Cc1ccc(Cl)nc1 [Compound 9, 2-amino-1-(6-chloro-3-pyridyl)methylimidazole]",pEC50,[2],4.04
"N=c1sccn1Cc1ccc(Br)nc1 [Compound 11, 3-(6-bromo-3-pyridyl)methyl-2-imino-2,3-dihydrothiazole]",Emax at 100 µM,,47%
"N=c1sccn1Cc1ccc(F)nc1 [Compound 12, 3-(6-fluoro-3-pyridyl)methyl-2-imino-2,3-dihydrothiazole]",Emax at 100 µM,,21%
"N=C1NCCN1Cc1ccc(Cl)nc1 [Compound 13, 1-(6-Chloro-3-pyridyl)methyl-2-iminoimidazolidine]",pEC50,[2],4.83
"N=C1CCCN1Cc1ccc(Cl)nc1 [Compound 14, 1-(6-Chloro-3-pyridyl)methyl-2-iminopyrrolidine]",pEC50,,4.57
"N=C1SCCN1Cc1ccc(Cl)cc1 [Compound 31, 3-(4-chlorobenzyl)-2-iminothiazolidine]",Emax at 100 µM,,4%
"N=C1SCCN1Cc1ccnnc1 [Compound 33, 2-imino-3-(4-pyridazinyl)methylthiazolidine]",Emax at 100 µM,,6%
"N=C1SCCN1Cc1cnc(Cl)s1 [Compound 34, 3-(2-chloro-5-thiazolyl)methyl-2-iminothiazolidine]",Emax at 100 µM,,13%
"N=c1ccc(-c2ccccc2)nn1Cc1ccc(Cl)nc1 [Compound 44, 2-(6-chloro-3-pyridyl)methyl-3-imino-6-phenyl-2,3-dihydropyridazine]",Emax at 100 µM,,10%
"Nc1nccn1Cc1cccnc1 [Compound 55, 2-amino-i-(3-pyridyl)methylimidazole]",Emax at 100 µM,[1],17%

# Reference: patent US20020028809A1 (SUNTORY LIMITED, priority 1999, published 2002)
